Here are results for 20 compounds from patent US11254686B1 (Corvus Pharmaceuticals, Inc., priority 2017, dated 2022).

A word on the IC50: it is the concentration needed to halve the response being measured.

The target in one test is adenosine A2B receptor (Homo sapiens (Human), UniProt P29275). In words: Adenosine receptor activity assay (Table 1), A2B activity. The class given is biochemical. The note with it: for IC50: read-out: Ave A2B cAMP IC50.
A further test concerns the target adenosine A2A receptor (Homo sapiens (Human), UniProt P29274). In words: Adenosine receptor activity assay (Table 1), A2A activity. Format: biochemical. The note with it: read-out: Ave A2A cAMP IC50.
The target in test [1] is T1, adenosine A1 receptor (Homo sapiens (Human), UniProt P30542). In words: Adenosine receptor activity assay (Table 1), A1 cAMP. The class given is cell-based.
Test [2] has as its target T2, adenosine A3 receptor (Homo sapiens (Human), UniProt P0DMS8). In words: Adenosine receptor activity assay (Table 1), A3 cAMP. The class given is cell-based.
Test [3] addresses T1, adenosine A1 receptor. In words: Adenosine receptor activity assay (Table 1), A1 cAMP. The class given is biochemical. On the procedure:
(§1) Table 1. Compounds (e.g., Adenosine Receptor modulators) and activity assay results. The legend is as follows: A=<10 nM; B=10-50 nM; C=50-100 nM; D=100-500; and E=>500 nM. The ratio corresponds to the A2A activity to the A2B activity; or A2A/A2B.

The target of test [4] is T2, adenosine A3 receptor. In words: Adenosine receptor activity assay (Table 1), A3 cAMP. The class given is biochemical. The protocol: as §1
[5] abbreviates: A2A activity to A2B activity (A2A/A2B).
The mark [6] stands for this setting: A2A activity to the A2B activity, A2A/A2B.

Where two headings read alike, the source gives them in different places.

adenosine A2B receptor, sequence (P29275 whole entry): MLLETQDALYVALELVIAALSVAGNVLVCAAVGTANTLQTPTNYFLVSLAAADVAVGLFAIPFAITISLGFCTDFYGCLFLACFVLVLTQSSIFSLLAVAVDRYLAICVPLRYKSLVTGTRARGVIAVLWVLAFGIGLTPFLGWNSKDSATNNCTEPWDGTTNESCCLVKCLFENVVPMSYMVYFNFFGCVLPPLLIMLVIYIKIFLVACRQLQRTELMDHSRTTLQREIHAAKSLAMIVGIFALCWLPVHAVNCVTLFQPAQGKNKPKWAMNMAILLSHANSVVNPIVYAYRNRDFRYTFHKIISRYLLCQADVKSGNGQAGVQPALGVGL
adenosine A2A receptor, sequence (P29274 whole entry): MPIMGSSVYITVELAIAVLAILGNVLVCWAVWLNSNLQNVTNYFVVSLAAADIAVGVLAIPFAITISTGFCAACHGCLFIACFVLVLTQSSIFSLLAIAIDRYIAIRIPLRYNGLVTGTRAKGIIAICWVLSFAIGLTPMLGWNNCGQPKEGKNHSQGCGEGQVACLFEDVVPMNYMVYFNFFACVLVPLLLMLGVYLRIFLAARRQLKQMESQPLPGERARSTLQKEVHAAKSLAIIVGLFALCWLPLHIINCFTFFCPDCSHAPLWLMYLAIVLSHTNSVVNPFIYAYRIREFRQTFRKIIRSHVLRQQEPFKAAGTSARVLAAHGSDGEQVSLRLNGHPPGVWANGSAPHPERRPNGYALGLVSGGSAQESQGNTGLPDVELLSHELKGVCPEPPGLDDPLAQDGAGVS
T1 sequence (P30542 whole entry): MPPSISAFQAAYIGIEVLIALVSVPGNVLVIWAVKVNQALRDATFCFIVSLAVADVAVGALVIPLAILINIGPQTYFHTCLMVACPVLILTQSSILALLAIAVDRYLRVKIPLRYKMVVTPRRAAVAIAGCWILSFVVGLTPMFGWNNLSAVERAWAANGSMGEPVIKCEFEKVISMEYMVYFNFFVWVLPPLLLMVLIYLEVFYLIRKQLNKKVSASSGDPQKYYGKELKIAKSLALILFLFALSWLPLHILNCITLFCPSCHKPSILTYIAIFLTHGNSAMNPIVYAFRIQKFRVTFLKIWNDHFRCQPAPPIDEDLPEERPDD
T2 sequence (P0DMS8 whole entry): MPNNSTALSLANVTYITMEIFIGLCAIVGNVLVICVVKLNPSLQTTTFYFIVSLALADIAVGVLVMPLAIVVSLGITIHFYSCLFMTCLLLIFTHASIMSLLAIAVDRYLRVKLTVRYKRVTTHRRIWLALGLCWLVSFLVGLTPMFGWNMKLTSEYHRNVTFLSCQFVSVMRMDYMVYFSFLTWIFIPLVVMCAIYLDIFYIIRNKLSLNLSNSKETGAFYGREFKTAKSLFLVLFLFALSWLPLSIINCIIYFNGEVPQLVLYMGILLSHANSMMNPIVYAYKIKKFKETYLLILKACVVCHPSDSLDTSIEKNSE

As for `CC(C)NC(=O)c1nc(N[C@@H](C)c2ccccn2)nc2ccsc12` [Example Z199, (S)—N-Isopropyl-2-((1-(pyridin-2-yl)ethyl)amino)thieno[3,2-d]pyrimidine-4-carboxamide], the Ratio at adenosine A2B receptor (setting [5]) stood at 3.51. Besides, the IC50 on adenosine A2B receptor was less than 0.01 µM; at adenosine A2A receptor it was 0.01 to 0.05 µM; at adenosine A1 receptor [1], greater than 0.5 µM; against adenosine A3 receptor [2], 0.05 to 0.1 µM.

As for `C[C@H](Nc1nc(C(=O)NC(C)(C)C)c2sccc2n1)c1ccccn1` [Example Z201, (S)—N-(tert-Butyl)-2-((1-(pyridin-2-yl)ethyl)amino)thieno[3,2-d]pyrimidine-4-carboxamide], the Ratio on adenosine A2B receptor (setting [5]) is recorded as 2.22. In addition, the IC50 at adenosine A2B receptor was 0.01 to 0.05 µM; at adenosine A2A receptor it was 0.05 to 0.1 µM; against adenosine A1 receptor [1] it was 0.05 to 0.1 µM; at adenosine A3 receptor [2], 0.05 to 0.1 µM.

On to `CNc1cc2nc(N[C@@H](C)c3ccccn3)nc(C(=O)N3CC(O)C3)c2s1` [Example Z221, (S)-(3-Hydroxyazetidin-1-yl)(6-(methylamino)-2-((1-(pyridin-2-yl)ethyl)amino)thieno[3,2-d]pyrimidin-4-yl)methanone], for which the Ratio at adenosine A2B receptor (setting [5]) is reported as 52.95. Further, the IC50 was 0.01 to 0.05 µM on adenosine A2B receptor, greater than 0.5 µM at adenosine A2A receptor, greater than 0.5 µM against adenosine A1 receptor [1] and 0.05 to 0.1 µM against adenosine A3 receptor [2].

Turning to `CNc1cc2nc(N[C@@H](C)c3ccccn3)nc(C(=O)NCCO)c2s1` [Example Z222, (S)—N-(2-Hydroxyethyl)-6-(methylamino)-2-((1-(pyridin-2-yl)ethyl)amino)thieno[3,2-d]pyrimidine-4-carboxamide], the Ratio on adenosine A2B receptor (setting [5]) worked out at 44.93. Moreover, the IC50 at adenosine A2B receptor was 0.01 to 0.05 µM; on adenosine A2A receptor it was greater than 0.5 µM; on adenosine A1 receptor [1] it was greater than 0.5 µM; against adenosine A3 receptor [2] it was greater than 0.5 µM.

On to `C[C@H](Nc1nc(C(=O)N2CCCC2)c2sc(N)cc2n1)c1cncc(F)c1` [Example Z223, (S)-(6-Amino-2-((1-(5-fluoropyridin-3-yl)ethyl)amino)thieno[3,2-d]pyrimidin-4-yl)(pyrrolidin-1-yl)methanone], for which the Ratio on adenosine A2B receptor (setting [5]) was determined as 158.10. In addition, the IC50 at adenosine A2B receptor is less than 0.01 µM; at adenosine A2A receptor it was 0.1 to 0.5 µM; on adenosine A1 receptor [1], greater than 0.5 µM; at adenosine A3 receptor [2] it was greater than 0.5 µM.

On to `C[C@H](Nc1nc(C(=O)NCC(F)(F)F)c2sccc2n1)c1ccccn1` [Example Z226, (S)-2-((1-(Pyridin-2-yl)ethyl)amino)-N-(2,2,2-trifluoroethyl)thieno[3,2-d]pyrimidine-4-carboxamide], for which the Ratio on adenosine A2B receptor (setting [5]) is reported as 11.22. Besides, the IC50 is less than 0.01 µM on adenosine A2B receptor, 0.05 to 0.1 µM at adenosine A2A receptor, greater than 0.5 µM against adenosine A1 receptor [1] and greater than 0.5 µM at adenosine A3 receptor [2].

In the case of `C[C@H](Nc1nc(C(=O)N2CCC2)c2sccc2n1)c1cncc(Cl)c1` [Example Z232, (S)-Azetidin-1-yl(2-((1-(5-chloropyridin-3-yl)ethyl)amino)thieno[3,2-d]pyrimidin-4-yl)methanone], the Ratio at adenosine A2B receptor (setting [5]) was determined as 60.88. The IC50 was less than 0.01 µM at adenosine A2B receptor, 0.1 to 0.5 µM on adenosine A2A receptor, greater than 0.5 µM at adenosine A1 receptor [1] and greater than 0.5 µM against adenosine A3 receptor [2].

Consider `COC1CN(C(=O)c2nc(N[C@@H](C)c3cncc(Cl)c3)nc3ccsc23)C1` [Example Z233, (S)-(2-((1-(5-Chloropyridin-3-yl)ethyl)amino)thieno[3,2-d]pyrimidin-4-yl)(3-methoxyazetidin-1-yl)methanone], for which the Ratio on adenosine A2B receptor (setting [5]) is 51.97. The IC50 at adenosine A2B receptor was less than 0.01 µM; at adenosine A2A receptor, 0.1 to 0.5 µM; against adenosine A1 receptor [1], greater than 0.5 µM; at adenosine A3 receptor [2], greater than 0.5 µM.

Regarding `C[C@H](Nc1nc(C(=O)N2CC[C@@H](F)C2)c2sccc2n1)c1cncc(F)c1` [Example Z234, (2-(((S)-1-(5-Fluoropyridin-3-yl)ethyl)amino)thieno[3,2-d]pyrimidin-4-yl)((R)-3-fluoropyrrolidin-1-yl)methanone], on adenosine A2B receptor (setting [5]), the Ratio was 58.04. Moreover, the IC50 at adenosine A2B receptor is less than 0.01 µM; on adenosine A2A receptor it was 0.1 to 0.5 µM; at adenosine A1 receptor [1] it was greater than 0.5 µM; at adenosine A3 receptor [2] it was greater than 0.5 µM.

On to `C[C@H](Nc1nc(C(=O)N2CC[C@H](O)C2)c2sccc2n1)c1cncc(Cl)c1` [Example Z236, (2-(((S)-1-(5-Chloropyridin-3-yl)ethyl)amino)thieno[3,2-d]pyrimidin-4-yl)((S)-3-hydroxypyrrolidin-1-yl)methanone], for which the Ratio at adenosine A2B receptor (setting [5]) was found to be 57.61. In addition, the half-maximal inhibitory concentration (IC50) on adenosine A2B receptor is 0.01 to 0.05 µM; at adenosine A2A receptor, greater than 0.5 µM; at adenosine A1 receptor [1], greater than 0.5 µM; against adenosine A3 receptor [2] it was greater than 0.5 µM.

As to `C[C@H](Nc1nc(C(=O)N2CC[C@@H](O)C2)c2sccc2n1)c1cncc(Cl)c1` [Example Z237, (2-(((S)-1-(5-Chloropyridin-3-yl)ethyl)amino)thieno[3,2-d]pyrimidin-4-yl)((R)-3-hydroxypyrrolidin-1-yl)methanone], on adenosine A2B receptor (setting [5]), the Ratio turned out to be 65.87. The IC50 was 0.01 to 0.05 µM on adenosine A2B receptor, greater than 0.5 µM at adenosine A2A receptor, greater than 0.5 µM against adenosine A1 receptor [1] and greater than 0.5 µM against adenosine A3 receptor [2].

Turning to `C[C@H](Nc1nc(C(=O)NCC(C)(C)O)c2sccc2n1)c1cncc(F)c1` [Example Z238, (S)-2-((1-(5-Fluoropyridin-3-yl)ethyl)amino)-N-(2-hydroxy-2-methylpropyl)thieno[3,2-d]pyrimidine-4-carboxamide], the Ratio at adenosine A2B receptor (setting [5]) is reported as 22.98. For the same compound, the half-inhibitory concentration (IC50) on adenosine A2B receptor was less than 0.01 µM; at adenosine A2A receptor, 0.1 to 0.5 µM; against adenosine A1 receptor [1], greater than 0.5 µM; against adenosine A3 receptor [2] it was greater than 0.5 µM.

Turning to `CC(C)(C)OC(=O)N[C@@H]1CCN(C(=O)c2nc(NCc3cncc(F)c3)nc3ccsc23)C1` [Example Z239, tert-Butyl (R)-(1-(2-(((5-fluoropyridin-3-yl)methyl)amino)thieno[3,2-d]pyrimidine-4-carbonyl)pyrrolidin-3-yl)carbamate], the Ratio on adenosine A2B receptor (setting [5]) was determined as 14.97. The concentration for half-maximal inhibition (IC50) on adenosine A2B receptor is less than 0.01 µM; on adenosine A2A receptor, 0.1 to 0.5 µM; on adenosine A1 receptor [1], greater than 0.5 µM; against adenosine A3 receptor [2] it was 0.01 to 0.05 µM.

On to `CNc1cc2nc(N[C@@H](C)c3cccnc3)nc(C(=O)N3CC(O)C3)c2s1` [Example Z240, (S)-(3-Hydroxyazetidin-1-yl)(6-(methylamino)-2-((1-(pyridin-3-yl)ethyl)amino)thieno[3,2-d]pyrimidin-4-yl)methanone], for which the Ratio at adenosine A2B receptor (setting [5]) was found to be 23.69. Also, the half-inhibitory concentration (IC50) on adenosine A2B receptor was 0.01 to 0.05 µM; on adenosine A2A receptor, greater than 0.5 µM; at adenosine A1 receptor [1], greater than 0.5 µM; at adenosine A3 receptor [2] it was greater than 0.5 µM.

As for `C[C@H](Nc1nc(C(=O)N2CCC2)c2sc(N)cc2n1)c1cncc(F)c1` [Example Z241, (S)-(6-Amino-2-((1-(5-fluoropyridin-3-yl)ethyl)amino)thieno[3,2-d]pyrimidin-4-yl)(azetidin-1-yl)methanone], the Ratio on adenosine A2B receptor (setting [5]) worked out at 78.77. In addition, the 50% inhibitory concentration (IC50) on adenosine A2B receptor is less than 0.01 µM; on adenosine A2A receptor it was 0.05 to 0.1 µM; at adenosine A1 receptor [1], greater than 0.5 µM; at adenosine A3 receptor [2], greater than 0.5 µM.

For the compound `C[C@H](Nc1nc(C(=O)N2CC[C@@H](O)C2)c2sc(N)cc2n1)c1cncc(F)c1` [Example Z242, (6-Amino-2-(((S)-1-(5-fluoropyridin-3-yl)ethyl)amino)thieno[3,2-d]pyrimidin-4-yl)((R)-3-hydroxypyrrolidin-1-yl)methanone], the Ratio at adenosine A2B receptor (setting [5]) is listed as 45.21. Besides, the IC50 at adenosine A2B receptor is less than 0.01 µM; on adenosine A2A receptor it was 0.1 to 0.5 µM; against adenosine A1 receptor [1], greater than 0.5 µM; on adenosine A3 receptor [2] it was greater than 0.5 µM.

Regarding `CNc1cc2nc(N[C@@H](C)c3cncc(F)c3)nc(C(=O)N3CC(OC)C3)c2s1` [Example Z243, (S)-(2-((1-(5-Fluoropyridin-3-yl)ethyl)amino)-6-(methylamino)thieno[3,2-d]pyrimidin-4-yl)(3-methoxyazetidin-1-yl)methanone], the Ratio on adenosine A2B receptor (setting [5]) stood at 112.45. The IC50 at adenosine A2B receptor is less than 0.01 µM; at adenosine A2A receptor, 0.1 to 0.5 µM; on adenosine A1 receptor [1] it was greater than 0.5 µM; on adenosine A3 receptor [2], 0.05 to 0.1 µM.

In the case of `Cc1cc2nc(N[C@@H](C)c3cncc(F)c3)nc(C(=O)N3CC[C@@H](CN)C3)c2s1` [Example Z597, ((S)-3-(Aminomethyl)pyrrolidin-1-yl)(2-(((S)-1-(5-fluoropyridin-3-yl)ethyl)amino)-6-methylthieno[3,2-d]pyrimidin-4-yl)methanone], at adenosine A2B receptor (setting [6]), the Ratio is on record as 99.33. For the same compound, the half-maximal inhibitory concentration (IC50) is 0.01 to 0.05 µM at adenosine A2B receptor, greater than 0.5 µM on adenosine A2A receptor, less than 0.01 µM against adenosine A1 receptor [3] and less than 0.01 µM on adenosine A3 receptor [4].

With `Cc1cc2nc(N[C@@H](C)c3cncc(F)c3)nc(C(=O)N3CC(NC(=O)[C@@H]4CCOC4)C3)c2s1` [Example Z598, (R)—N-(1-(2-(((S)-1-(5-Fluoropyridin-3-yl)ethyl)amino)-6-methylthieno[3,2-d]pyrimidine-4-carbonyl)azetidin-3-yl)tetrahydrofuran-3-carboxamide], the Ratio on adenosine A2B receptor (setting [6]) was 0.68. Moreover, the IC50 on adenosine A2B receptor was 0.01 to 0.05 µM; at adenosine A2A receptor, 0.01 to 0.05 µM; at adenosine A1 receptor [3], greater than 0.5 µM; against adenosine A3 receptor [4], 0.1 to 0.5 µM.

Turning to “(S)—N-((6-methoxypyridin-2-yl)methyl)-6-methyl-2-((1-(pyridin-2-yl)ethyl)amino)thieno[3,2-d]pyrimidine-4-carboxamide [Example Z464]”, the Ratio at adenosine A2B receptor (setting [6]) is reported as 19.50. In addition, the IC50 was less than 0.01 µM on adenosine A2B receptor, 0.1 to 0.5 µM at adenosine A2A receptor, greater than 0.5 µM on adenosine A1 receptor [3] and 0.05 to 0.1 µM against adenosine A3 receptor [4].
